SMILES strings stand for the structures.

The target in the first assay is T1, CCR2 (Homo sapiens, UniProt P41597).
T1 sequence (P41597 1-360 isoform P41597-2): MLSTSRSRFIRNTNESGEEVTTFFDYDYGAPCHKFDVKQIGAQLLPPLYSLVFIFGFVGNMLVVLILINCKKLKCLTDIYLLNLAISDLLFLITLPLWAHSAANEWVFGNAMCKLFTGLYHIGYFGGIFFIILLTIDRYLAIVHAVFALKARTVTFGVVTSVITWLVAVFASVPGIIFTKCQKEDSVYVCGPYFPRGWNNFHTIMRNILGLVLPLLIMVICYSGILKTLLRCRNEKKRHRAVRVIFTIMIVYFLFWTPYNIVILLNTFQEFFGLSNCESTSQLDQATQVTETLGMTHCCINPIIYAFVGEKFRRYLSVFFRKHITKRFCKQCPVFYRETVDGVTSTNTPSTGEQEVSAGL
Conditions: not given
Take `O=C(O)C(C1CCN(C(=O)NCc2ccc(Cl)c(Cl)c2)CC1)N1CCC(c2c[nH]c3ccccc23)CC1` (stereo not shown) [Cpd 84, [1-(3,4-dichloro-benzylcarbamoyl)-piperidin-4-yl]-[4-(1H-indol-3-yl)-piperidin-1-yl]-acetic acid]: the midpoint of inhibition, the IC50, lay at 2900 nM.
The same measure, in the same setting: as for `O=C(O)C(C1CCN(C(=O)Nc2ccc(F)cc2)CC1)N1CCC(c2c[nH]c3ccccc23)CC1` (stereo not shown) [Cpd 90, [1-(4-fluoro-phenylcarbamoyl)-piperidin-4-yl]-[4-(1H-indol-3-yl)-piperidin-1-yl]-acetic acid], the figure is 480 nM.
Take `O=C(O)C(C1CCN(C(=O)Nc2ccc(Cl)cc2Cl)CC1)N1CCC(c2c[nH]c3ccccc23)CC1` (stereo not shown) [Cpd 111, [1-(2,4-dichloro-phenylcarbamoyl)-piperidin-4-yl]-[4-(1H-indol-3-yl)-piperidin-1-yl]-acetic acid]: the IC50 (commonly the concentration that gives 50% inhibition) is 11200 nM.
Still for that read-out and setting: for `O=C(O)C(C1CCN(C(=O)Nc2ccc(Cl)cc2F)CC1)N1CCC(c2c[nH]c3ccccc23)CC1` (stereo not shown) [Cpd 117, [1-(4-chloro-2-fluoro-phenylcarbamoyl)-piperidin-4-yl]-[4-(1H-indol-3-yl)-piperidin-1-yl]-acetic acid] the value was 1000 nM; for `COC(=O)C(C1CCN(C(=O)/C=C/c2cc(F)c(F)c(F)c2)CC1)N1CCC(c2c[nH]c3c(OC)cccc23)CC1` (stereo not shown) [Cpd 118, [4-(7-methoxy-1H-indol-3-yl)-piperidin-1-yl]-{1-[(2E)-3-(3,4,5-trifluoro-phenyl)-acryloyl]-piperidin-4-yl}-acetic acid methyl ester], 3200 nM; for `O=C(O)C(C1CCN(C(=O)Nc2ccc(F)c(F)c2F)CC1)N1CCC(c2c[nH]c3ccccc23)CC1` (stereo not shown) [Cpd 125, [4-(1H-indol-3-yl)-piperidin-1-yl]-[1-(2,3,4-trifluoro-phenylcarbamoyl)-piperidin-4-yl]-acetic acid], 1700 nM.
The same measure, in the same setting: as for `O=C(O)C(C1CCN(C(=O)Nc2cc(Cl)c(Cl)cc2Cl)CC1)N1CCC(c2c[nH]c3ccccc23)CC1` (stereo not shown) [Cpd 126, [4-(1H-indol-3-yl)-piperidin-1-yl]-[1-(2,4,5-trichloro-phenylcarbamoyl)-piperidin-4-yl]-acetic acid], the figure is 2100 nM; as for `CN(C)CC(C1CCN(C(=O)/C=C/c2cc(F)cc(F)c2)CC1)N1CCC(c2c[nH]c3ccccc23)CC1` (stereo not shown) [Cpd 130, (2E)-3-(3,5-difluoro-phenyl)-1-(4-{2-dimethylamino-1-[4-(1H-indol-3-yl)-piperidin-1-yl]-ethyl}-piperidin-1-yl)-propenone], 8550 nM.
Compound `COc1cccc2c(C3CCN(C(CO)C4CCN(C(=O)OC(C)(C)C)CC4)CC3)c[nH]c12` (stereo not shown) [Cpd 131, 4-{2-hydroxy-1-[4-(7-methoxy-1H-indol-3-yl)-piperidin-1-yl]-ethyl}-piperidine-1-carboxylic acid tert-butyl ester] displayed an IC50 of 3900 nM.
In the case of `COC(=O)c1ccc(C2CCN(C(C(=O)O)C3CCN(C(=O)/C=C/c4cc(F)cc(F)c4)CC3)CC2)cc1` (stereo not shown) [Cpd 145, 4-[1-(carboxy-{1-[(2E)-3-(3,5-difluoro-phenyl)-acryloyl]-piperidin-4-yl}-methyl)-piperidin-4-yl]-benzoic acid methyl ester], the half-maximal inhibitory concentration (IC50) came to 5850 nM.
In the case of `O=C(CC1CCN(C(C(=O)O)C2CCN(C(=O)/C=C/c3cc(F)cc(F)c3)CC2)CC1)NCc1ccccc1` (stereo not shown) [Cpd 148, [4-(benzylcarbamoyl-methyl)-piperidin-1-yl]-{1-[(2E)-3-(3,5-difluoro-phenyl)-acryloyl]-piperidin-4-yl}-acetic acid], the midpoint of inhibition, the IC50, lay at 8800 nM.
Turning to `O=C(CC1CCN(C(C(=O)O)C2CCN(C(=O)/C=C/c3cc(F)c(F)c(F)c3)CC2)CC1)NCc1ccccc1` (stereo not shown) [Cpd 149], 16600 nM corresponded to half-maximal inhibition (IC50).
`O=C(O)C(C1CCN(C(=O)/C=C/c2cc(F)c(F)c(F)c2)CC1)N1CCC(c2cc[nH]c2)CC1` (stereo not shown) [Cpd 150, [4-(1H-pyrrol-3-yl)-piperidin-1-yl]-{1-[(2E)-3-(3,4,5-trifluoro-phenyl)-acryloyl]-piperidin-4-yl}-acetic acid] showed an IC50 of 1600 nM.
On the same count and under the same terms, as for `CCOC(=O)C(C1CCN(C(=O)/C=C/c2cc(F)c(F)c(F)c2)CC1)N1CCC(c2c[nH]c3ncccc23)CC1` (stereo not shown) [Cpd 152, [4-(1H-pyrrolo[2,3-b]pyridin-3-yl)-piperidin-1-yl]-{1-[(2E)-3-(3,4,5-trifluoro-phenyl)-acryloyl]-piperidin-4-yl}-acetic acid ethyl ester], the figure is 1900 nM; as for `O=C(O)C(C1CCN(C(=O)/C=C/c2cc(F)cc(F)c2)CC1)N1CCC(c2n[nH]c3ccccc23)CC1` (stereo not shown) [Cpd 177, {1-[(2E)-3-(3,5-difluoro-phenyl)-acryloyl]-piperidin-4-yl}-[4-(1H-indazol-3-yl)-piperidin-1-yl]-acetic acid], 3000 nM.
Same read-out and setting: for `O=C(/C=C/c1cc(F)cc(F)c1)N1CCC(C(CO)N2CCC(c3nccs3)CC2)CC1` (stereo not shown) [Cpd 194, (2E)-3-(3,5-difluoro-phenyl)-1-{4-[2-hydroxy-1-(4-thiazol-2-yl-piperidin-1-yl)-ethyl]-piperidin-1-yl}-propenone] the value was 2300 nM; for `O=C(/C=C/c1cc(F)c(F)c(F)c1)N1CCC(C(CO)N2CCC(c3nccs3)CC2)CC1` (stereo not shown) [Cpd 195], 3300 nM.
`O=C(/C=C/c1ccc(Cl)c(Cl)c1)N1CCC(C(CO)N2CCC(c3nccs3)CC2)CC1` (stereo not shown) [Cpd 196] registered an IC50 of 5700 nM.
Compound `COc1cccc(C2CCN(C(CO)C3CCN(C(=O)/C=C/c4cc(F)cc(F)c4)CC3)CC2)c1` (stereo not shown) [Cpd 197] returned a concentration for half-maximal inhibition (IC50) of 1200 nM.
Same read-out and setting: for `O=C(/C=C/c1cc(F)cc(F)c1)N1CCC(C(CO)N2CCC(c3ccccn3)CC2)CC1` (stereo not shown) [Cpd 200] the value was 2000 nM; for `CS(=O)(=O)Nc1ccc(C2CCN(C(C(=O)O)C3CCN(C(=O)/C=C/c4cc(F)c(F)c(F)c4)CC3)CC2)cc1` (stereo not shown) [Cpd 206, [4-(4-methanesulfonylamino-phenyl)-piperidin-1-yl]-{1-[(2E)-3-(3,4,5-trifluoro-phenyl)-acryloyl]-piperidin-4-yl}-acetic acid], 2000 nM.
Still for that read-out and setting: for `CS(=O)(=O)Nc1ccc(C2CCN(C(CO)C3CCN(C(=O)/C=C/c4ccc(Cl)c(Cl)c4)CC3)CC2)cc1` (stereo not shown) [Cpd 210, N-{4-[1-(1-{1-[(2E)-3-(3,4-dichloro-phenyl)-acryloyl]-piperidin-4-yl}-2-hydroxy-ethyl)-piperidin-4-yl]-phenyl}-methanesulfonamide] the value was 5000 nM.
`O=CNCC(C1CCN(C(=O)/C=C/c2cc(F)cc(F)c2)CC1)N1CCC(c2c[nH]c3ccccc23)CC1` (stereo not shown) [Cpd 221] had an IC50 of 410 nM.
On the same count and under the same terms, for `O=CNCC(C1CCN(C(=O)/C=C/c2ccc(Cl)c(Cl)c2)CC1)N1CCC(c2c[nH]c3ccccc23)CC1` (stereo not shown) [Cpd 222] the value was 680 nM; for `Cc1cccc(/C=C/C(=O)N2CCC(C(CNC=O)N3CCC(c4c[nH]c5ccccc45)CC3)CC2)c1` (stereo not shown) [Cpd 223], 4100 nM; for `O=CNCC(C1CCN(C(=O)/C=C/c2ccsc2)CC1)N1CCC(c2c[nH]c3ccccc23)CC1` (stereo not shown) [Cpd 225], 1300 nM.
Compound `O=CNCC(C1CCN(C(=O)Nc2ccc(Cl)c(Cl)c2)CC1)N1CCC(c2c[nH]c3ccccc23)CC1` (stereo not shown) [Cpd 226] had an IC50 of 2100 nM.
For `CCNC(=O)NCC(C1CCN(C(=O)/C=C/c2cc(F)c(F)c(F)c2)CC1)N1CCC(c2c[nH]c3ccccc23)CC1` (stereo not shown) [Cpd 228], half-maximal inhibition (IC50) was put at 2400 nM.
Compound `CCNC(=O)NCC(C1CCN(C(=O)/C=C/c2cc(F)cc(F)c2)CC1)N1CCC(c2c[nH]c3ccccc23)CC1` (stereo not shown) [Cpd 229] showed an IC50 of 1700 nM.
Same read-out and setting: as for `CCNC(=O)NCC(C1CCN(C(=O)/C=C/c2ccc(Cl)c(Cl)c2)CC1)N1CCC(c2c[nH]c3ccccc23)CC1` (stereo not shown) [Cpd 230], the figure is 2100 nM; as for `CCNC(=O)NCC(C1CCN(C(=O)/C=C/c2cccc(C)c2)CC1)N1CCC(c2c[nH]c3ccccc23)CC1` (stereo not shown) [Cpd 231], 4600 nM; as for `CCNC(=O)NCC(C1CCN(C(=O)/C=C/c2cccc(C(F)(F)F)c2)CC1)N1CCC(c2c[nH]c3ccccc23)CC1` (stereo not shown) [Cpd 232], 4000 nM.
For `CC(=O)OCC(C1CCN(C(=O)OC(C)(C)C)CC1)N1CCC(c2c[nH]c3ccccc23)CC1` (stereo not shown) [Cpd 234, 4-{2-acetoxy-1-[4-(1H-indol-3-yl)-piperidin-1-yl]-ethyl}-piperidine-1-carboxylic acid tert-butyl ester], the IC50 is 11200 nM.

Staying with this assay, now noted: read-out: Inhibition of MCP-1 Binding IC50; 125I labeled MCP-1 binding to CCR2, THP-1 cells.
As for `COc1ccc(C2CCN(C(CO)C3CCN(C(=O)/C=C/c4cc(F)c(F)cc4F)CC3)CC2)cc1` (stereo not shown) [Cpd 140, (2E)-1-(4-{2-hydroxy-1-[4-(4-methoxy-phenyl)-piperidin-1-yl]-ethyl}-piperidin-1-yl)-3-(2,4,5-trifluoro-phenyl)-propenone], the IC50 is 1600 nM.

The assay is the same for the next values; noted with them: read-out: Inhibition of MCP-1 Binding, percent inhibition.
Take `CS(=O)(=O)Nc1ccc(C2CCN(C(CO)C3CCN(C(=O)/C=C/c4cc(F)c(F)c(F)c4)CC3)CC2)cc1` (stereo not shown) [Cpd 209, N-{4-[1-(2-hydroxy-1-{1-[(2E)-3-(3,4,5-trifluoro-phenyl)-acryloyl]-piperidin-4-yl}-ethyl)-piperidin-4-yl]-phenyl}-methanesulfonamide]: the inhibition – broadly, the percentage by which the read-out fell short of the control – at 25 µM was 52%.
In the case of `O=C(C1CC1c1ccc(Cl)c(Cl)c1)N1CCC(C(CO)N2CCC(c3c[nH]c4ccccc34)CC2)CC1` (stereo not shown) [Cpd 212, [2-(3,4-dichloro-phenyl)-cyclopropyl]-(4-{2-hydroxy-1-[4-(1H-indol-3-yl)-piperidin-1-yl]-ethyl}-piperidin-1-yl)-methanone], the inhibition at 25 µM is 58%.
Consider `O=CNCC(C1CCN(C(=O)/C=C/c2cccc(C(F)(F)F)c2)CC1)N1CCC(c2c[nH]c3ccccc23)CC1` (stereo not shown) [Cpd 224], for which the inhibition at 25 µM amounted to 54%.

The record behind these values is patent publication US20060069123A1, “Substituted dipiperidine CCR2 antagonists” (priority 2004, published 2006).
